12 compounds from US20240342292A1, “Compounds for the Degradation of EGFR Kinase” (BeiGene Switzerland GmbH, priority 2021, published 2024) can be followed below.

The structures appear in SMILES notation.

For one assay, the target named is T1, L858R/T790M/C797S EGFR (Homo sapiens, UniProt P00533, C797S/L858R/T790M).
T1 construct: expressed in transfected cells; host or cells: H1975 clone #25 (lentiviral over-expression, endogenous EGFR knocked out by sgRNA)
Kind of assay: EGFR degradation HTRF assay in H1975-clone #25 (LTC) cells. The class given is cell-based. The following applies: 16h treatment; for DC50: H1975 # 25-LTC (L858R/T790M/C797S), HTRF; for Dmax: NCI-H1975, H1975 # 25-LTC (L858R/T790M/C797S), maximum percentage of degradation. Summed up:
(§1)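 DC50 from a four-parameter fit of HTRF signal. H1975 mutant-EGFR clones with endogenous EGFR knocked out; 16 h treatment, 10 uM top, 5-fold × 8.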
For orientation: In TR-FRET formats the signal depends on donor and acceptor labels being close together.

The next assay deals with Del19/T790M/C797S EGFR. As to the kind of experiment: EGFR degradation HTRF assay in H1975-clone #28 (DTC) cells. The format is cell-based. The following applies: H1975 # 28 DTC (Del19/T790M/C797S), 16h treatment; for DC50: HTRF; for Dmax (%): maximum percentage of degradation. In short, it runs like this:
as §1

T1 sequence (P00533 25-1210 T790M/C797S/L858R): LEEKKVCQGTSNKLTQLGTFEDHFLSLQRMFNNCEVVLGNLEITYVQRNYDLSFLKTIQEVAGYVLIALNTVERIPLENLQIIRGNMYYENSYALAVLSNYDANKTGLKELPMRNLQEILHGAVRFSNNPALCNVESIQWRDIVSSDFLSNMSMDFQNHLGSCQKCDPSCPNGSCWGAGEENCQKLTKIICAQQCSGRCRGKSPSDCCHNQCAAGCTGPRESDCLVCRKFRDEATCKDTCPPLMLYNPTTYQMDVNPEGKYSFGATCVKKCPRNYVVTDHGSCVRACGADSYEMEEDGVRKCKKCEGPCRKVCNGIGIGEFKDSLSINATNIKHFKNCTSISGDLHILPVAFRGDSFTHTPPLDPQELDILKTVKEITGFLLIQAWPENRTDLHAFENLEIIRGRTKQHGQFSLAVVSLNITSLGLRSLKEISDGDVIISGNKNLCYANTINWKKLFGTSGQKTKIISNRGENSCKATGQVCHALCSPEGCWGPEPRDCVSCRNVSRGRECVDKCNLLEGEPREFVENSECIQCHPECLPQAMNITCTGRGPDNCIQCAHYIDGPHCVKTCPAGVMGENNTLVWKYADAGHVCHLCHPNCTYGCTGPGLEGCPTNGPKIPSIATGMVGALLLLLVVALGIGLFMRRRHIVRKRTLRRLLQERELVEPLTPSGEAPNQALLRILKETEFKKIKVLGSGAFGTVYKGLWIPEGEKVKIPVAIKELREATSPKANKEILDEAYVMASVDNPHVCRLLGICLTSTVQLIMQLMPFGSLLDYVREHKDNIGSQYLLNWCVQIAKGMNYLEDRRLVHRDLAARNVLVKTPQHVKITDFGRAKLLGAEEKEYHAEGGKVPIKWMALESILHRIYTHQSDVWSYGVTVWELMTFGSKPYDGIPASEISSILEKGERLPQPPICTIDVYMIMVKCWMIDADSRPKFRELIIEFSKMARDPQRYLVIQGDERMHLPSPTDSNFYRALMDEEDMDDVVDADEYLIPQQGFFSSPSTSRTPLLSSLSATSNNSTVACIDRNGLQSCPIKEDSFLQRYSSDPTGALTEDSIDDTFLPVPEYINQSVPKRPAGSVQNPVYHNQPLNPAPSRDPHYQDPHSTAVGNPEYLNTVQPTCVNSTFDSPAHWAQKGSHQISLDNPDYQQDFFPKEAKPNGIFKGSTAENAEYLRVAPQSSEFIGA

The DC50 is the concentration at which degradation of the target reaches its halfway point. Low values mean degradation at low concentration, high ones degradation only at high concentration. The term Dmax denotes the greatest extent of degradation seen. The low end stands for a partial loss of target, the high end for a fuller loss of target. `Cc1cc2cc(n1)-c1cnn(C)c1OCCC[C@@H](C)CN1/C(=N/C2=O)Nc2ccc(C(=O)N(C)C3CCC(N(C)CCc4cc(F)c([C@H]5CCC(=O)NC5=O)c(F)c4)CC3)cc21` (stereo partly drawn) [Example 278, (R,E)-N-(4-((4-((R)-2,6-dioxopiperidin-3-yl)-3,5-difluorophenethyl)(methyl)amino)cyclohexyl)-N,1^1,2^6,7-tetramethyl-3-oxo-5^2,5^3-dihydro-1^1H,5^1H-11-oxa-4-aza-5(2,1)-benzo[d]imidazola-2(2,4)-pyridina-1(4,5)-pyrazolacycloundecaphane-5^6-carboxamide]: at L858R/T790M/C797S EGFR, the DC50 was 804 pM and the maximal degradation (Dmax) stood at 74.2%. In addition, in the assay with Del19/T790M/C797S EGFR, the DC50 worked out at 567 pM and the “Dmax (%)” value is given as 52.21%.
Regarding `Cc1cc2cc(n1)-c1cnn(C)c1OCCC[C@@H](C)CN1/C(=N/C2=O)Nc2ccc(CN3CCN(C(=O)[C@H]4CN(c5cc(F)c([C@H]6CCC(=O)NC6=O)c(F)c5)CC4(C)C)CC3)cc21` [Example 77, (R)-3-(4-((R)-3,3-dimethyl-4-(4-(((R,E)-1^1,2^6,7-trimethyl-3-oxo-5^2,5^3-dihydro-1^1H,5^1H-11-oxa-4-aza-5(2,1)-benzo[d]imidazola-2(2,4)-pyridina-1(4,5)-pyrazolacycloundecaphane-5-yl)methyl)piperazine-1-carbonyl)pyrrolidin-1-yl)-2,6-difluorophenyl)piperidine-2,6-dione], on L858R/T790M/C797S EGFR, the half-maximal degradation concentration (DC50) is 1700 pM and the Dmax stood at 83.4%. Moreover, in the assay with Del19/T790M/C797S EGFR, the DC50 was 2200 pM and the “Dmax (%)” value was 78.3%.
For the compound `Cc1cc2cc(n1)-c1cnn(C)c1OCCC[C@@H](C)CN1/C(=N/C2=O)Nc2ccc(C(=O)N(C)C[C@@H]3CCN(CCc4cc(F)c([C@H]5CCC(=O)NC5=O)c(F)c4)CC3(F)F)cc21` [Example 273, (R,E)-N—(((S)-1-(4-((R)-2,6-dioxopiperidin-3-yl)-3,5-difluorophenethyl)-3,3-difluoropiperidin-4-yl)methyl)-N,1′,2,7-tetramethyl-3-oxo-5^2,5^3-dihydro-1^1H,5^1H-11-oxa-4-aza-5(2,1)-benzo[d]imidazola-2(2,4)-pyridina-1(4,5)-pyrazolacycloundecaphane-5^6-carboxamide], at L858R/T790M/C797S EGFR, the DC50 is 4580 pM and the greatest degradation seen (Dmax) was 88.8%. In the assay with Del19/T790M/C797S EGFR, half-maximal degradation (DC50) was put at 489 pM and the “Dmax (%)” value was 66.66%.
The like results for `CO[C@H]1CN(CCc2cc(F)c([C@H]3CCC(=O)NC3=O)c(F)c2)CC[C@H]1NC(=O)c1ccc2c(c1)N1C[C@H](C)CCCOc3c(cnn3C)-c3cc(cc(C)n3)C(=O)/N=C/1N2` [Example 244, (R,E)-N-((3S,4R)-1-(4-((R)-2,6-dioxopiperidin-3-yl)-3,5-difluorophenethyl)-3-methoxypiperidin-4-yl)-1^1,2^6,7-trimethyl-3-oxo-5^2,5^3-dihydro-1^1H,5^1H-li-oxa-4-aza-5(2,1)-benzo[d]imidazola-2(2,4)-pyridina-1(4,5)-pyrazolacycloundecaphane-5^6-carboxamide] were, in that order, 167 pM, 95.3%, 548 pM and 78.89%.
At L858R/T790M/C797S EGFR, `Cc1cc2cc(n1)-c1cnn(C)c1OCCC[C@@H](C)CN1/C(=N/C2=O)Nc2ccc(C(=O)N[C@H]3CCN(CCc4cc(F)c([C@H]5CCC(=O)NC5=O)c(F)c4)C[C@H]3F)cc21` [Example 343, (R,E)-N—((3R,4S)-1-(4-((R)-2,6-dioxopiperidin-3-yl)-3,5-difluorophenethyl)-3-fluoropiperidin-4-yl)-1^1,2^6,7-trimethyl-3-oxo-5^2,5^3-dihydro-1^1H,5^1H-11-oxa-4-aza-5(2,1)-benzo[d]imidazola-2(2,4)-pyridina-1(4,5)-pyrazolacycloundecaphane-5^6-carboxamide] yielded a DC50 of 599 pM and a maximal degradation (Dmax) of 90.5%. For the same compound, in the assay with Del19/T790M/C797S EGFR, the half-maximal degradation concentration (DC50) amounted to 609 pM and the “Dmax (%)” value came to 76.11%.
On L858R/T790M/C797S EGFR, `Cc1cc2cc(n1)-c1cnn(C)c1OCCC[C@@H](C)CN1/C(=N/C2=O)Nc2ccc(C(=O)N(C)[C@@H]3CCN(CCc4cc(F)c([C@H]5CCC(=O)NC5=O)c(F)c4)C3)cc21` [Example 291, (R,E)-N—((R)-1-(4-((R)-2,6-dioxopiperidin-3-yl)-3,5-difluorophenethyl)pyrrolidin-3-yl)-N,1^1,2^6,7-tetramethyl-3-oxo-5^2,5^3-dihydro-1^1H,5^1H-11-oxa-4-aza-5(2,1)-benzo[d]imidazola-2(2,4)-pyridina-1(4,5)-pyrazolacycloundecaphane-5^6-carboxamide] returned a DC50 of 630 pM and a Dmax of 79%. Besides, in the assay on Del19/T790M/C797S EGFR, the half-maximal degradation concentration (DC50) is 513 pM and the “Dmax (%)” value was found to be 72.04%.
For `Cc1cc2cc(n1)-c1cnn(C)c1OCCC[C@@H](C)CN1/C(=N/C2=O)Nc2ccc(C(=O)N(C)[C@@H](C)C3CCN(CCc4cc(F)c(C5CCC(=O)NC5=O)c(F)c4)CC3)cc21` (stereo partly drawn) [Example 272, (R,E)-N—((S)-1-(1-(4-((R)-2,6-dioxopiperidin-3-yl)-3,5-difluorophenethyl)piperidin-4-yl)ethyl)-N,1,2^6,7-tetramethyl-3-oxo-5^2,5^3-dihydro-1^1H,5^1H-11-oxa-4-aza-5(2,1)-benzo[d]imidazola-2(2,4)-pyridina-1(4,5)-pyrazolacycloundecaphane-5^6-carboxamide] the same measures were 1360 pM, 87.2%, 1520 pM and 76.03%.
On to `Cc1cc2cc(n1)-c1cnn(C)c1OCCC[C@@H](C)CN1/C(=N/C2=O)Nc2ccc(C(=O)N(C)[C@H]3CCN(CCc4cc(F)c([C@H]5CCC(=O)NC5=O)c(F)c4)C[C@H]3C)cc21` [Example 256, (R,E)-N-((3R,4S)-1-(4-((R)-2,6-dioxopiperidin-3-yl)-3,5-difluorophenethyl)-3-methylpiperidin-4-yl) -N,1^1,2^6,7-tetramethyl-3-oxo-5^2,5^3-dihydro-1^1H,5^1H-11-oxa-4-aza-5(2,1)-benzo[d]imidazola-2(2,4)-pyridina-1(4,5)-pyrazolacycloundecaphane-5^6-carboxamide], for which, on L858R/T790M/C797S EGFR, the DC50 was determined as 326 pM and the Dmax was 88.1%. In the assay on Del19/T790M/C797S EGFR, the 50% degradation concentration (DC50) turned out to be 608 pM and the “Dmax (%)” value is 83.08%.
The like results for `Cc1cc2cc(n1)-c1cnn(C)c1OCCC[C@@H](C)CN1/C(=N/C2=O)Nc2ccc(N3CCN(CC4CN(c5cc(F)c([C@H]6CCC(=O)NC6=O)c(F)c5)C4)[C@@H](C#N)C3)cc21` [Example 423, (R)-1-((1-(4-((R)-2,6-dioxopiperidin-3-yl)-3,5-difluorophenyl)azetidin-3-yl)methyl)-4-((R,E)-1^1,2^6,7-trimethyl-3-oxo-5^2,5^3-dihydro-1^1H,5^1H-1l-oxa-4-aza-5(2,1)-benzo[d]imidazola-2(2,4)-pyridina-1(4,5)-pyrazolacycloundecaphane-5^6-yl)piperazine-2-carbonitrile] were, in that order, 1400 pM, 78.8%, 655 pM and 67.20%.
The like results for `Cc1cc2cc(n1)-c1cnn(C)c1OCCC[C@@H](C)CN1/C(=N/C2=O)Nc2ccc(C(=O)N(C)[C@@H]3CCN(CCc4cc(F)c([C@H]5CCC(=O)NC5=O)c(F)c4)C[C@@H]3F)cc21` [Example 344, (R,E)-N—((3S,4R)-1-(4-((R)-2,6-dioxopiperidin-3-yl)-3,5-difluorophenethyl)-3-fluoropiperidin-4-yl)-N,1^1,2^6,7-tetramethyl-3-oxo-5^2,5^3-dihydro-1^1H,5^1H-11-oxa-4-aza-5(2,1)-benzo[d]imidazola-2(2,4)-pyridina-1(4,5)-pyrazolacycloundecaphane-5^6-carboxamide] were, in that order, 386 pM, 92.8%, 620 pM and 83.22%.
At L858R/T790M/C797S EGFR, `Cc1cc2cc(n1)-c1cnn(C)c1OCCC[C@@H](C)CN1/C(=N/C2=O)Nc2ccc(N3CCN(C4CCN(c5cc(F)c([C@H]6CCC(=O)NC6=O)c(F)c5)CC4)[C@H](CO)C3)cc21` [Example 447, (R)-3-(2,6-difluoro-4-(4-((S)-2-(hydroxymethyl)-4-((R,E)-1^1,2^6,7-trimethyl-3-oxo-5^2,5^3-dihydro-1^1H,5^1H-11-oxa-4-aza-5(2,1)-benzo[d]imidazola-2(2,4)-pyridina-1(4,5)-pyrazolacycloundecaphane-5^6-yl)piperazin-1-yl)piperidin-1-yl)phenyl)piperidine-2,6-dione] came in with a DC50 of 652 pM and a Dmax of 84.2%. Also, in the assay with Del19/T790M/C797S EGFR, the half-maximal degradation concentration (DC50) stood at 645 pM and the “Dmax (%)” value is 76.31%.
Turning to `Cc1cc2cc(n1)-c1cnn(C)c1OCCC[C@@H](C)CN1/C(=N/C2=O)Nc2ccc(C(=O)N3CC[C@H]4CN(CCc5cc(F)c([C@H]6CCC(=O)NC6=O)c(F)c5)CC[C@H]43)cc21` [Example 304, (R)-3-(2,6-difluoro-4-(2-((3aS,7aR)-1-((R,E)-1^1,2^6,7-trimethyl-3-oxo-5^2,5^3-dihydro-1^1H,5^1H-11-oxa-4-aza-5(2,1)-benzo[d]imidazola-2(2,4)-pyridina-1(4,5)-pyrazolacycloundecaphane-5^6-carbonyl)octahydro-5H-pyrrolo[3,2-c]pyridin-5-yl)ethyl)phenyl)piperidine-2,6-dione], at L858R/T790M/C797S EGFR, it took 610 pM to reach half-maximal degradation (DC50) and the maximal degradation (Dmax) is 79.9%. In the assay on Del19/T790M/C797S EGFR, the 50% degradation concentration (DC50) amounted to 595 pM and the “Dmax (%)” value is given as 78.73%.
